The values that follow come from patent US20240293413A1, “COMPOUND AND METHOD FOR TREATING CHEMOTHERAPY-RELATED GASTROINTESTINAL SIDE EFFECTS” (ONQUALITY PHARMACEUTICALS CHINA LTD., priority 2021, published 2024).

Common to all, as to format: in vivo
Assay [1] has as its system Chemotherapeutic agent-caused constipation models of Balb/c mice. Briefly: Examples 272-342 (Table 5): oral CDK inhibitor, relief of constipation caused by a chemotherapeutic agent.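 Also: percent of treated mice relieved versus chemotherapy group by feces reduction rate.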 As to conditions: cycle 8 days. An excerpt: Construction of mouse animal models: Chemotherapeutic agent-caused constipation models of Balb/c mice were constructed according to the administration mode and frequency of the chemotherapeutic agent as shown in Table 5.
(§1) Balb/c mice were fed for 1 week, and then divided into groups. The experiment was divided into a control group, a chemotherapeutic agent group, and a CDK inhibitor group, each of which comprised 10 mice, to perform the administration experiment, for which the administration dosage, mode, time and frequency were shown in Table 5. The control group: being intragastrically administered with the same solvent as that used in the CDK inhibitor group (the time was shown in Table 5), and then being injected/intragastrically administered with the same solvent as that used in the chemotherapeutic agent group (the administration mode was shown in Table 5): the chemotherapeutic agent group: being intragastrically administered with the same solvent as that used in the CDK inhibitor group (the time was shown in […]), and then being injected/intragastrically administered with the chemotherapeutic agent (the type, administration mode and dosage were shown in Table 5): the CDK inhibitor group: being intragastrically administered with the CDK inhibitor (the time was shown in Table 5), and then being administered with the chemotherapeutic agent (the mode and dosage were shown in Table 5).
Feces reduction rate (%)=(the control group−the chemotherapeutic agent group or the CDK inhibitor group)/the control group*100%
The feces amount of mice within 3 hours was observed and recorded every day.

Assay [2] deals with diarrhea caused by a chemotherapeutic agent in Balb/c mice. Briefly: Examples 343-381 (Table 6): oral versus intravenous CDK inhibitor, relief of diarrhea caused by a chemotherapeutic agent.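 As to Relative remission rate: percent of treated mice whose diarrhea grade fell below chemotherapy-group average.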 As to conditions: for Relative remission rate: Example 369, Topotecan (TP) intramuscular injection 10 mg/kg single, 12 h before, cycle 10 days. An excerpt:
Balb/c mice were fed for 1 week, and then divided into groups. The experiment was divided into a control group, a chemotherapeutic agent group, and an oral administration group of a CDK inhibitor, and an intravenous injection group of a CDK inhibitor, each of which comprised 10 mice, to perform the administration experiment, for which the administration dosage, mode, time and frequency were shown in Table 6. The control group: being injected/intragastrically administered with the same solvent as that used in the CDK inhibitor group (the time was shown in Table 6), and then being injected/intragastrically administered with the same solvent as that used in the chemotherapeutic agent group (the administration mode was shown in Table 6): the chemotherapeutic agent group: being injected/intragastrically administered with the same solvent as that used in the CDK inhibitor group (the time was shown in Table 6), and then being injected/intragastrically administered with the chemotherapeutic agent (the type, administration mode and dosage were shown in Table 6): the oral administration group of the CDK inhibitor: being intragastrically administered with the CDK inhibitor (the time was shown in Table 6), and then being administered with the chemotherapeutic agent (the mode and dosage were shown in Table 6): the intravenous injection group of the CDK inhibitor: being injected with the CDK inhibitor through tail vein (the time was shown in Table 6), and then being administered with the chemotherapeutic agent (the mode and dosage were shown in Table 6).
(§2) The diarrhea grading of mice was observed and recorded every day.

The subject of assay [3] is Chemotherapeutic agent-caused diarrhea models of Balb/c mice. Briefly: Examples 1-229 (Table 3): oral CDK inhibitor, relief of diarrhea caused by a chemotherapeutic agent.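 Also: percent of treated mice whose diarrhea grade fell below chemotherapy-group average.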
Excerpt: Construction of mouse animal models: Chemotherapeutic agent-caused diarrhea models of Balb/c mice were constructed according to the administration mode and frequency of the chemotherapeutic agent as shown in Table 3.
as §1, with “in Table 3. The control” for “in Table 5. The control”, “in Table 3), and then” for “in Table 5), and then”, “in Table 3): the chemotherapeutic” for “in Table 5): the chemotherapeutic”, “in Table 3); the CDK” for “in Table 5): the CDK”, “in Table 3).” for “in Table 5).”
as §2

Regarding `CN[C@@H]1C[C@H]2O[C@@](C)([C@@H]1OC)n1c3ccccc3c3c4c(c5c6ccccc6n2c5c31)C(=O)N[C@H]4O` [KRX-0601], the Relative remission rate was determined as 10% in assay [1] (Example 334, Cytarabine (Ara-C) intramuscular injection 600 mg/kg single, CDK inhibitor oral 40 mg/kg single, 12 h before); 10% in assay [2] (CDK inhibitor intravenous injection 250 mg/kg single); 20% in assay [2] (CDK inhibitor oral 250 mg/kg single). Moreover, in assay [2] (diarrhea caused by etoposide, etoposide in combination with cisplatin, carboplatin, gemcitabine, gemcitabine in combination with carboplatin, and topotecan, oral administration has the most significant effect), the “relief of diarrhea by oral administration and injection administration” value is given as “effectively relieve diarrhea”. In assay [3] (Example 165, Docetaxel (DTX) oral administration 30 mg/kg single, CDK inhibitor oral 250 mg/kg single 3 h before, cycle 8 days), the “Relative remission rate (%)” value was determined as 10%.
In the case of `CNC(=O)c1nn(C)c2c1C(C)(C)Cc1cnc(Nc3ccc(N4CCN(C)CC4)cc3)nc1-2` [Milciclib], the Relative remission rate in assay [1] (Example 315, Docetaxel (DTX) intraperitoneal injection 15 mg/kg single, CDK inhibitor oral 60 mg/kg single, 0.5 h before) amounted to 30%; in assay [1] (Example 316, Docetaxel (DTX) intraperitoneal injection 15 mg/kg single, CDK inhibitor oral 60 mg/kg single, 4 h before) it was 20%; in assay [1] (Example 317, Docetaxel (DTX) intraperitoneal injection 15 mg/kg single, CDK inhibitor oral 60 mg/kg single, 8 h before) it was 20%; in assay [1] (Example 318, Docetaxel (DTX) intraperitoneal injection 15 mg/kg single, CDK inhibitor oral 60 mg/kg single, 12 h before), 30%; in assay [1] (Example 319, Docetaxel (DTX) intraperitoneal injection 15 mg/kg single, CDK inhibitor oral 60 mg/kg single, 24 h before), 10%; in assay [1] (Example 320, Docetaxel (DTX) intraperitoneal injection 15 mg/kg single, CDK inhibitor oral 60 mg/kg single, 48 h before) it was 0%. Also, the “Relative remission rate (%)” value in assay [3] (Example 194, Gemcitabine 60 mg/kg and paclitaxel 10 mg/kg intraperitoneal injection single, CDK inhibitor oral 60 mg/kg single, 2 h before, 8 days) turned out to be 40%.
On to `CC(=O)c1c(C)c2cnc(N[C@@H]3CCOC[C@H]3O)cc2n(C2CCCC2)c1=O` [PF-06842874], for which the “Relative remission rate (%)” value in assay [3] (Example 210, Carboplatin 5 mg/kg and paclitaxel 10 mg/kg intraperitoneal injection single, CDK inhibitor oral 80 mg/kg single, 6 h before, 10 days) amounted to 40%; in assay [3] (Example 222, Fluorouracil 100 mg/kg and oxaliplatin 10 mg/kg intraperitoneal injection single, CDK inhibitor oral 80 mg/kg single, 4 h before, 10 days), 30%.
In the case of `COCc1cc(C(=O)Nc2cc([C@H]3CC[C@@H](OC(=O)NC(C)C)C3)[nH]n2)n(C)n1` [PF-07104091], in assay [3] (Example 161, Docetaxel (DTX) intraperitoneal injection 10 mg/kg single, CDK inhibitor oral 50 mg/kg single 8 h before, cycle 8 days), the “Relative remission rate (%)” value was 40%.
Turning to `CC(=O)Nc1ccc([C@H](C)C(=O)Nc2ncc(C(C)C)s2)cc1` [PHA-690509], in assay [3] (Example 123, Irinotecan (CPT-11) intraperitoneal injection 240 mg/kg single, CDK inhibitor oral 60 mg/kg single 12 h before, cycle 7 days), the “Relative remission rate (%)” value came out at 40%.
For the molecule `CC(C)CC(=O)Nc1[nH]nc2c1CN(C(=O)C1CCN(C)CC1)C2(C)C` [PHA-793887], the “Relative remission rate (%)” value in assay [3] (Example 160, Docetaxel (DTX) intraperitoneal injection 10 mg/kg single, CDK inhibitor oral 70 mg/kg single 4 h before, cycle 8 days) came out at 30%.
With `COCCN1CCN(Cc2ccc(-c3n[nH]c4c3C(=O)c3c(NC(=O)NN5CCOCC5)cccc3-4)cc2)CC1` [RGB-286638], the “Relative remission rate (%)” value in assay [3] (Example 124, Irinotecan (CPT-11) intraperitoneal injection 240 mg/kg single, CDK inhibitor oral 100 mg/kg single 12 h before, cycle 7 days) was determined as 60%; in assay [3] (Example 130, Irinotecan (CPT-11) intravenous injection 200 mg/kg single, CDK inhibitor oral 100 mg/kg single 8 h before, cycle 7 days), 50%.
On to `COc1ccc(F)c(F)c1C(=O)c1cnc(NC2CCN(S(C)(=O)=O)CC2)nc1N` [RO4584820], for which, in assay [3] (Example 218, Fluorouracil 100 mg/kg and irinotecan 200 mg/kg intravenous injection single, CDK inhibitor oral 70 mg/kg single, 4 h before, 10 days), the “Relative remission rate (%)” value amounted to 50%.
Regarding `COc1cc(OC)c(/C=C/S(=O)(=O)Cc2ccc(OC)c(NCC(=O)O)c2)c(OC)c1` [Rigosertib], the “Relative remission rate (%)” value in assay [3] (Example 116, Irinotecan (CPT-11) intraperitoneal injection 240 mg/kg single, CDK inhibitor oral 250 mg/kg single 4 h before, cycle 7 days) is 20%; in assay [3] (Example 189, Gemcitabine (GEM) intraperitoneal injection 120 mg/kg single, CDK inhibitor oral 250 mg/kg single, 6 h before, 8 days), 30%; in assay [3] (Example 214, Fluorouracil 100 mg/kg and irinotecan 200 mg/kg intravenous injection single, CDK inhibitor oral 250 mg/kg single, 2 h before, 10 days), 20%.
For `Cc1c(Br)c(Br)c2c3c1nc(N1CCNCC1)n3CCC2` [SEL120], the “Relative remission rate (%)” value in assay [3] (Example 75, Oxaliplatin intraperitoneal injection 20 mg/kg single, CDK inhibitor oral 80 mg/kg single 8 h before, cycle 8 days) was 40%; in assay [3] (Example 120, Irinotecan (CPT-11) intraperitoneal injection 240 mg/kg single, CDK inhibitor oral 80 mg/kg single 8 h before, cycle 7 days), 40%.
In the case of `CN1CC[C@H](c2c(OP(=O)(O)O)cc(O)c3c(=O)cc(-c4ccccc4Cl)oc23)[C@H](O)C1` [TP-1287], in assay [3] (Example 37, Fluorouracil (5-Fu) intraperitoneal injection 125 mg/kg single, CDK inhibitor oral 10 mg/kg single 10 h before, cycle 10 days), the “Relative remission rate (%)” value came to 40%.
As for `CC(C)c1c2cc(-c3nc(Nc4ccc(N5CCNCC5)cn4)ncc3F)ccc2nn1C` [TQB-3616], the “Relative remission rate (%)” value stood at 30% in assay [3] (Example 32, Fluorouracil (5-Fu) intraperitoneal injection 125 mg/kg single, CDK inhibitor oral 70 mg/kg single 4 h before, cycle 10 days); 50% in assay [3] (Example 148, Docetaxel (DTX) intraperitoneal injection 10 mg/kg single, CDK inhibitor oral 70 mg/kg single 4 h before, cycle 8 days); 60% in assay [3] (Example 197, Gemcitabine 60 mg/kg and paclitaxel 10 mg/kg intravenous injection single, CDK inhibitor oral 70 mg/kg single, 4 h before, 8 days); 60% in assay [3] (Example 220, Fluorouracil 100 mg/kg and oxaliplatin 10 mg/kg intraperitoneal injection single, CDK inhibitor oral 70 mg/kg single, 6 h before, 10 days).
Consider `CN1CC[C@@H](c2c(O)cc(O)c3c(=O)cc(-c4ccc(C(F)(F)F)cc4Cl)oc23)[C@@H]1CO` [Voruciclib], for which the “Relative remission rate (%)” value in assay [3] (Example 76, Oxaliplatin intraperitoneal injection 20 mg/kg single, CDK inhibitor oral 250 mg/kg single 4 h before, cycle 8 days) turned out to be 70%; in assay [3] (Example 203, Gemcitabine 60 mg/kg and paclitaxel 10 mg/kg intravenous injection single, CDK inhibitor oral 250 mg/kg single, 8 h before, 8 days), 80%.
On to `CN1C/C=C/CCOc2cccc(c2)-c2ccnc(n2)Nc2cccc(c2)C1` [Zotiraciclib], for which the “Relative remission rate (%)” value in assay [3] (Example 33, Fluorouracil (5-Fu) intraperitoneal injection 125 mg/kg single, CDK inhibitor oral 100 mg/kg single 4 h before, cycle 10 days) was 20%; in assay [3] (Example 152, Docetaxel (DTX) intraperitoneal injection 10 mg/kg single, CDK inhibitor oral 100 mg/kg single 8 h before, cycle 8 days) it was 30%.
With FN-1501, the “Relative remission rate (%)” value in assay [3] (Example 36, Fluorouracil (5-Fu) intraperitoneal injection 125 mg/kg single, CDK inhibitor oral 200 mg/kg single 6 h before, cycle 10 days) came out at 60%; in assay [3] (Example 156, Docetaxel (DTX) intraperitoneal injection 10 mg/kg single, CDK inhibitor oral 200 mg/kg single 10 h before, cycle 8 days), 60%; in assay [3] (Example 169, Docetaxel (DTX) intravenous injection 10 mg/kg single, CDK inhibitor oral 200 mg/kg single 8 h before, cycle 8 days), 50%.
